Assay results reported in US20050043331A1, “Substituted 3-(2,5-disubstituted)pyridyl-4-aryl pyrroles for treating inflammatory diseases” (priority 2002, published 2005).
Read-outs that look alike come from different tables or passages of the source.

What was measured:
TNF-α [1] = test: In vivo rodent assay for inhibition of LPS-induced TNF-α production; parameters: species or system Mice (BALB/cJ females); conditions: 10 mg/kg oral; for inhibition in vivo at 10 mg/kg: Mus musculus, po
Experimental: Mice (BALB/cJ females, Jackson Laboratories) or rats (Lewis males, Charles River) were fasted for 30 min. The animals were dosed orally on a mg/kg basis at a range of times prior to being injected intraperitoneally with LPS at 1 mg/kg and returned to their cages for 1 h. Animals were anesthetized by CO2, exsanguinated by cardiac puncture and whole blood collected (0.1-0.7 mL). The blood was allowed to clot and serum was transferred to a centrifuge tube. This sample was centrifuged, and serum was collected, aliquoted and frozen at −80° C. Samples were tested by commercial ELISA's for TNF-α (Endogen for mouse TNF-α and Biosource for rat TNF-α).

TNF-α [2] = test: In-vitro whole cell assay for TNF-α inhibition (LPS-stimulated PBMC, ELISA); format: cell-based; conditions: TNF-α by ELISA
Experimental: Freshly obtained venous blood was anticoagulated with heparin, diluted with an equal volume of phosphate buffered saline (“PBS”) and placed in a sterile tube or other container. Aliquots (30 mL) of this mixture were transferred to centrifuge tubes, which were underlaid with Ficoll-Hypaque (15 mL). The prepared tubes were centrifuged at 400×g, without braking, for 30 min at room temperature. Approximately ½ to ⅔ of the platelet layer above the mononuclear cell band was removed with a pipette. The majority of the mononuclear cell layer was carefully removed using a pipette and these PBMC's were diluted with PBS and spun at 600×g for 15 min. The resulting PBMC's were washed with another portion of PBS and spun at 400×g for 10 min at room temperature. The recovered pellets were diluted in low endotoxin RPMI/1% FCS culture medium, and gave a cell concentration of 0.5-2.0×10^6 PMBC/ mL. A small volume of the suspension was removed for counting on a hemocytometer and the remaining preparation was centrifuged at 200×g for 15 min at room temperature. The recovered pelleted PMBC's were resuspended in RPMI/1% FCS to a concentration of 1.67×10^6/mL.
To run the assay, the PBMC suspension (180 μL) was transferred to duplicate wells of a 96-well flat-bottom microtiter plate and incubated for 1 h at 37° C. A solution of test compound (10 μL: prepared at 20× the desired final concentration) was added to each well and the plate was incubated for 1 h at 37° C. A solution (10 μL) of LPS in RPMI/1% FCS (200 ng/mL) was added and the wells were incubated overnight at 37° C. The supernate (100 μL) was removed from each well and diluted with RPMI/1% FCS (400 μL). The samples were analyzed for TNF-α using a commercial ELISA kit (Genzyme).

[3] = 0.5 h, 0.5 h, read-out: Mouse 10 mg/kg % inhib 0.5 h
[4] = 2 h, 2 h, read-out: Mouse 10 mg/kg % inhib 2 h

Structure (SMILES) | IC50 (TNF-α [2]) [nM] | inhibition in vivo at 10 mg/kg (TNF-α [1]; [3]) [%] | inhibition in vivo at 10 mg/kg (TNF-α [1]; [4]) [%] | Mouse 10 mg/kg % inhib 2 h (TNF-α [1]; 2 h, 10 mg/kg) [%]
CCCc1c(-c2ccnc(SC)n2)c(-c2ccc(F)cc2)cn1CCCN(C)C [Cpd 48] | 148 | -37 | – | –
Cn1cc(-c2ccc(F)cc2)c(-c2ccncc2)c1CO [Cpd 112] | 169 | 65 | – | –
COC(=O)c1c(-c2ccc(F)cc2)c(-c2ccncc2)c(-c2ccc(N(C)C)cc2)n1C [Cpd 122] | 120 | -22 | – | –
CN(CCN1CCOCC1)c1c(-c2ccncc2)c(-c2ccc(F)cc2)cn1C [Cpd 173] | 117 | 65 | -17 | –
CC(=O)c1c(-c2ccc(F)cc2)c(-c2ccncc2)c(N2CCN(C)CC2)n1C [Cpd 178] | 370 | – | 40 | –
CCNC(=O)N1CCN(c2c(-c3ccncc3)c(-c3ccc(F)cc3)c(C(=O)OC)n2C)CC1 [Cpd 13, 5-[4-[(Ethylamino)carbonyl]-1-piperazinyl]-3-(4-fluorophenyl)-1-methyl-4-(4-pyridinyl)-1H-pyrrole-2-carboxylic acid methyl ester] | 2920 | -38 | – | –
CN1CCN(c2c(-c3ccncc3)c(-c3ccc(F)cc3)c(C#N)n2C)CC1 [Cpd 183] | 80 | – | 47 | –
COC(=O)c1c(-c2ccncc2)c(-c2ccc(F)cc2)c(NCCN2CCOCC2)n1C [Cpd 148] | 10000 | 91 | – | –
COC(=O)c1c(-c2ccc(F)cc2)c(-c2ccncc2)c(N2CCN(CC3CC3)CC2)n1C [Cpd 128] | 269 | 66.3 | – | –
COC(=O)c1c(-c2ccc(F)cc2)c(-c2ccncc2)c(NCCN(C)C)n1C [Cpd 114] | 98 | -43 | – | –
Cn1c(Br)c(-c2ccncc2)c(-c2ccc(F)cc2)c1C#N [Cpd 170] | 625 | 22 | – | –
COC(=O)c1c(-c2ccc(F)cc2)c(-c2ccncc2)c(N2CCC(N)C2)n1C (stereo not shown) [Cpd 113] | 237 | 25 | – | –
CCn1c(C(=O)OC)c(-c2ccc(F)cc2)c(-c2ccncc2)c1N(C)CCN1CCOCC1 [Cpd 163] | 105 | 66 | 13 | –
COC(=O)c1c(-c2ccc(F)cc2)c(-c2ccncc2)c2n1CCC2C (stereo not shown) [Cpd 47, 6-(4-Fluorophenyl)-2,3-dihydro-1-methyl-7-(4-pyridinyl)-1H-pyrrolizine-5-carboxylic acid methyl ester] | 208 | 67 | 52 | –
COC(=O)c1c(-c2ccc(F)cc2)c(-c2ccncc2)c(N2CCN(C(C)=O)CC2)n1C [Cpd 116] | 1530 | 57 | – | –
COC(=O)c1c(-c2ccc(F)cc2)c(-c2ccncc2)c(N2CCN(S(C)(=O)=O)CC2)n1C [Cpd 12, 3-(4-Fluorophenyl)-1-methyl-5-[4-(methylsulfonyl)-1-piperazinyl]-4-(4-pyridinyl)-1H-pyrrole-2-carboxylic acid methyl ester] | 5860 | -29 | – | –
COC(=O)c1c(-c2ccc(F)cc2)c(-c2ccncc2)c(C2=CCNCC2)n1C [Cpd 7, 3-(4-Fluorophenyl)-1-methyl-4-(4-pyridinyl)-5-(1,2,3,6-tetrahydro-4-pyridinyl)-1H-pyrrole-2-carboxylic acid methyl ester] | 72 | 96 | – | –
COC(=O)c1c(-c2ccc(F)cc2)c(-c2ccncc2)cn1C(C)=O [Cpd 121] | 194 | -32.1 | – | –
COC(=O)c1c(-c2ccc(F)cc2)c(-c2ccncc2)c(NC2CCNCC2)n1C [Cpd 131] | 315 | 7 | – | –
CC(=O)N1CCN(c2c(-c3ccncc3)c(-c3ccc(F)cc3)c(C#N)n2C)CC1 [Cpd 182] | 154 | – | 81 | –
Cn1cc(-c2ccncc2)c(-c2ccc(F)cc2)c1C#N [Cpd 168] | 171 | 67 | – | −19
COC(=O)c1c(-c2ccc(F)cc2)c(-c2ccncc2)c(NCCN2CCCCC2)n1C [Cpd 115] | 92 | -36 | – | –
CCN1C(=O)c2c(-c3ccncc3)c(-c3ccc(F)cc3)cn2C1=O [Cpd 31, 2-Ethyl-6-(4-fluorophenyl)-7-(4-pyridinyl)-1H-pyrrolo[1,2-c]imidazole-1,3(2H)-dione] | 401 | 72 | – | –
CCOC(=O)c1c(-c2ccc(F)cc2)c(-c2ccncc2)c(CCCN2CCOCC2)n1C [Cpd 19, 3-(4-Fluorophenyl)-1-methyl-5-[3-(4-morpholinyl)propyl]-4-(4-pyridinyl)-1H-pyrrole-2-carboxylic acid ethyl ester] | 756 | 34 | – | –
COc1ccc(CNCc2[nH]cc(-c3ccncc3)c2-c2ccc(F)cc2)cc1 [Cpd 138] | 190 | -30 | – | –
COC(=O)C1CCn2c(NCCN3CCOCC3)c(-c3ccncc3)c(-c3ccc(F)cc3)c2C1=O (stereo not shown) [Cpd 23, 1-(4-Fluorophenyl)-5,6,7,8-tetrahydro-3-[[2-(4-morpholinyl)ethyl]amino]-8-oxo-2-(4-pyridinyl)-7-indolizinecarboxylic acid methyl ester] | 77 | 71 | – | –
O=C1CCn2c(Br)c(-c3ccncc3)c(-c3ccc(F)cc3)c21 [Cpd 129] | 819 | 31 | – | –
COC(=O)c1c(-c2ccc(F)cc2)c(-c2ccncc2)c(Nc2ccc(N3CCOCC3)cc2)n1C [Cpd 159] | 1560 | 29 | – | –

More lines, main results first:

IC50 (TNF-α [2]) [nM] | Structure (SMILES) | inhibition in vivo at 10 mg/kg (TNF-α [1]; [3]) [%] | inhibition in vivo at 10 mg/kg (TNF-α [1]; [4]) [%] | Mouse 10 mg/kg % inhib 2 h (TNF-α [1]; 2 h, 10 mg/kg) [%]
59 | Cn1cc(-c2ccncc2)c(-c2ccc(F)cc2)c1-c1cnco1 [Cpd 41, 4-[4-(4-Fluorophenyl)-1-methyl-5-(5-oxazolyl)-1H-pyrrol-3-yl]pyridine] | 53 | – | –
42 | COC(=O)c1c(-c2ccc(F)cc2)c(-c2ccncc2)c(NCc2ccc(OC)cc2)n1C [Cpd 160] | 79 | -46 | –
18 | Cn1cc(-c2ccncc2)c(-c2ccc(F)cc2)c1-c1nnco1 [Cpd 35, 4-[4-(4-Fluorophenyl)-1-methyl-5-(1,3,4-oxadiazol-2-yl)-1H-pyrrol-3-yl]pyridine] | 60 | -1 | –
5 | COC(=O)c1c(-c2ccc(F)cc2)c(-c2ccncc2)c(/N=C/N(C)C)n1C [Cpd 15] | 6 | -21 | –
72 | CON(C)C(=O)c1c(-c2ccc(F)cc2)c(-c2ccncc2)c(N2CCN(C(=O)OC(C)(C)C)CC2)n1C [Cpd 145] | 45 | – | –
7.7 | COC(=O)c1c(-c2ccc(F)cc2)c(-c2ccncc2)c(C#CCN2CCN(C)CC2)n1C [Cpd 184] | – | 57 | –
27 | Cn1cc(-c2ccncc2)c(-c2ccc(F)cc2)c1CNC(=O)Nc1ccccc1 [Cpd 185] | – | 82 | –
4 | CCCC1=C(c2ccnc(N[C@@H](C)c3ccccc3)n2)C(c2ccc(F)cc2)=CC1CCN1CCOCC1 (stereo partly shown) [Cpd 55] | -35 | – | –
23 | COC(=O)c1c(-c2ccc(F)cc2)c(-c2ccncc2)cn1C(=O)OC [Cpd 139] | -22 | – | –
57 | COC(=O)c1c(-c2ccc(F)cc2)c(-c2ccncc2)c(Nc2ccccc2)n1C [Cpd 119] | -10.5 | – | –
29 | COC(=O)C1Cn2cc(-c3ccncc3)c(-c3ccc(F)cc3)c2C1=O (stereo not shown) [Cpd 21, 7-(4-Fluorophenyl)-2,3-dihydro-1-oxo-6-(4-pyridinyl)-1H-pyrrolizine-2-carboxylic acid methyl ester] | 44.7 | – | –
33 | COC(=O)c1c(-c2ccc(F)cc2)c(-c2ccncc2)c(N2CCNCC2)n1C [Cpd 8, 3-(4-Fluorophenyl)-1-methyl-5-(1-piperazinyl)-4-(4-pyridinyl)-1H-pyrrole-2-carboxylic acid methyl ester] | 73 | – | –
5 | COC(=O)CN1CCN(c2c(-c3ccncc3)c(-c3ccc(F)cc3)c(C(=O)OC)n2C)CC1 [Cpd 181] | – | 26 | –
18 | Cn1c(C#N)c(-c2ccc(F)cc2)c(-c2ccncc2)c1N1CCNCC1 [Cpd 186] | – | 67 | –
